Data as given in patent US8763410B2, “Method and apparatus for the dissolution and filtration of a hyperpolarized agent with a neutral dissolution media” (General Electric Company, priority 2008, dated 2014).

Columns and labels:
[1] = pH-solubility profile of the EPA; format: physicochemical
Text: In an exemplary embodiment of the invention sterile deionized water is placed in the syringe of the sterile fluid path (SFP), a sample of ^13CPA mixed with EPA is placed in the sample container and NaOH, TRIS, and EDTA are placed in the receiver. Size exclusion filters are placed in the filter cartridge. In this embodiment, the pH-solubility profile of the EPA is considered.

[2] = Measure of pH and EPA residual after neutral (water) dissolution and size exclusion filtration; conditions: 22 g water 130° C., 250 psi; receiver 10 g of 360 mM NaOH, 200 mM TRIS, 268 μM EDTA; two 20 μm frits
Protocol: A fluid path syringe was filled with 22 g of 18.2 MΩcm water and 10 g of 360 mM NaOH, 200 mM TRIS and 268 μM EDTA was placed in the fluid path receiver. A mixture of ^12C pyruvic acid and EPA were in the approximate ratio of 53:1 was placed in the sample container of the fluid path. The water in the syringe was heated to 130° C. and was pressurized to 250 psi. The filter body was filled with two frits used as particle size exclusion filters (Varian, part number 12131043, 1.5″ diameter, average pore size 20 μm).

| Compound | solubility in aqueous solutions ([1]; above pH 4) | particulate diameter ([1]; pH less than 4) | solubility in aqueous solution ([1]; pH less than 4) | pH of resulting solution in the receiver [2] |
| --- | --- | --- | --- | --- |
| tris {8-carboxyl-2,2,6,6-tetra[2-(1-methoxyethyl)]-benzo(1,2-d:4,5-d′)bis(1,3)dithiole-4-yl}methyl sodium salt [EPA] | soluble | greater than or equal to 10 microns | predominantly insoluble |  |
| CC(=O)C(=O)O [^12C pyruvic acid] |  |  |  | 7.97 |
